Source: patent US20240360177A1, “PEPTIDES WITH ANTIMICROBIAL ACTIVITIES” (priority 2021, published 2024)
Values after ≈ are worked out from the molar mass of the structure shown. Non-standard residues stand in square brackets, D forms with d. Residues, ends and D or L forms follow the SMILES beside them. hArg = N=C(N)NCCCC[C@H](N)C(=O)O

Tests used:
[1] = system: C. glabrata; settings: ATCC 90030; 24 hrs
[2] = system: C. tropicalis; settings: ATCC 90874; 24 hrs
[3] = system: C. auris; settings: CDC 386; 24 hrs
[4] = Cytotoxicity in HepG2 cells, intracellular ATP assay; settings: human, EC50 cytotoxicity in HepG2, intracellular ATP assay, Table 16; 18-22 hrs exposure without FBS
[5] = system: C. gattii; settings: ATCC MYA-4093; 72 hrs
[6] = system: C. albicans; settings: ATCC 90028 or 90029; 24 hrs
[7] = system: C. neoformans; settings: ATCC 90112; 72 hrs
[8] = system: C. dubliniensis; settings: ATCC MYA-578; 24 hrs
[9] = system: C. parapsilosis; settings: ATCC 22019; 24 hrs
[10] = system: Candida spp.; settings: 15 strains (Table 10)
[11] = system: C. krusei; settings: MMX 7135; 24 hrs

N=C(N)NCCCC[C@H](NC(=O)[C@@H](CCCNC(=N)N)NC(=O)[C@H](CCCCNC(=N)N)NC(=O)[C@@H](CCCNC(=N)N)NC(=O)[C@@H]1CCCN1C(=O)[C@H](CCCCNC(=N)N)NC(=O)[C@@H](CCCNC(=N)N)NC(=O)[C@H](CCCCNC(=N)N)NC(=O)[C@@H](CCCNC(=N)N)NC(=O)[C@@H]1CCCN1C(=O)[C@@H](CCCNC(=N)N)NC(=O)[C@H](CCCCNC(=N)N)NC(=O)[C@@H](CCCNC(=N)N)NC(=O)[C@@H]1CCCN1C(=O)[C@@H](CCCNC(=N)N)NC(=O)[C@H](CCCCNC(=N)N)NC(=O)[C@H](N)CCCNC(=N)N)C(N)=O [SEQ ID NO: 88, r(Har)r-P-r(Har)r-P-r(Har)r(Har)-P-r(Har)r(Har)-NH2] (H-[dR][hArg][dR]P[dR][hArg][dR]P[dR][hArg][dR][hArg]P[dR][hArg][dR][hArg]-NH2)
MIC C. glabrata [1]: 0.5 µg/mL (≈ 0.194 µM)
MIC C. tropicalis [2]: 0.5 µg/mL (≈ 0.194 µM)
MIC C. auris [3]: 0.5 µg/mL (≈ 0.194 µM)
EC50 [4]: > 300 µg/mL
MIC C. gattii [5]: 0.5 µg/mL (≈ 0.194 µM)
MIC C. albicans [6]: 0.5 µg/mL (≈ 0.194 µM)
MIC C. neoformans [7]: 0.5 µg/mL (≈ 0.194 µM)
MIC C. dubliniensis [8]: 0.5 µg/mL (≈ 0.194 µM)
MIC C. parapsilosis [9]: 0.25 µg/mL (≈ 0.0969 µM)
MIC50 Candida species [10]: 0.5 µg/mL (≈ 0.194 µM)
MIC90 Candida species [10]: 1 µg/mL (≈ 0.388 µM)
MIC C. krusei [11]: 0.5 µg/mL (≈ 0.194 µM)
